Read-outs that look alike come from different tables or passages of the source.
Experiments:
HEK293 cells = experiment: Cellular growth inhibition assay (CellTiter-Glo), HEK293 cells; format: cell-based; settings: three days compound treatment, CellTiter-Glo 2.0, read-out: CTG HEK293 GI50
Method in brief: (§1)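 HEK293 or HeLa cells seeded at 500 cells/well in DMEM with 10% FBS, treated after 24 h with titrated compound for three days at 37 °C, 5% CO2. CellTiter-Glo 2.0 luminescence read on Day 0 and Day 3, normalized to DMSO, four-parameter fit giving GI50.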

EGFR = biological target: T1, EGFR (Homo sapiens, UniProt P00533); experiment: KdELECT binding assay, EGFR
T1 construct: purchased
Method in brief: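 Competition binding: DNA- or T7 phage-tagged EGFR was incubated 1 h at room temperature with immobilized ligand beads and an 11-point 3-fold compound series (0.9% DMSO final). Bead-bound kinase was eluted and quantified by qPCR to derive Kd.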

[1] = biological target: T2, EGFR WT (amino acids 669-1011, Accession Number NP_005219.2) (Homo sapiens, UniProt P00533); experiment: KdELECT binding assay (Eurofins Discovery), EGFR WT
T2 construct: purchased Eurofins Discovery; host or cells: bacteria (E. coli, BL21-derived, T7 phage)
Method in brief: (§2)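 Competition binding: WT kinase as T7 phage fusion from E. coli, T790M/L858R produced in HEK-293 and DNA-tagged, incubated 1 h at room temperature with immobilized ligand beads and compound (11-point 3-fold series, 0.9% DMSO). Bead-bound kinase eluted and quantified by qPCR to derive Kd.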

[2] = biological target: T3, EGFR T790M, L858R (amino acids 669-1011 Accession Number NP_005219.2) (Homo sapiens, UniProt P00533, L858R/T790M); experiment: KdELECT binding assay (Eurofins Discovery), EGFR T790M, L858R; settings: read-out: EGFR DM Kd
T3 construct: purchased Eurofins Discovery; host or cells: mammalian cells (HEK-293)
Method in brief: as §2

HeLa cells = experiment: Cellular growth inhibition assay (CellTiter-Glo), HeLa cells; format: cell-based; settings: three days compound treatment, CellTiter-Glo 2.0, read-out: CTG HELA GI50
Method in brief: as §1

T2 sequence (P00533 669-1011): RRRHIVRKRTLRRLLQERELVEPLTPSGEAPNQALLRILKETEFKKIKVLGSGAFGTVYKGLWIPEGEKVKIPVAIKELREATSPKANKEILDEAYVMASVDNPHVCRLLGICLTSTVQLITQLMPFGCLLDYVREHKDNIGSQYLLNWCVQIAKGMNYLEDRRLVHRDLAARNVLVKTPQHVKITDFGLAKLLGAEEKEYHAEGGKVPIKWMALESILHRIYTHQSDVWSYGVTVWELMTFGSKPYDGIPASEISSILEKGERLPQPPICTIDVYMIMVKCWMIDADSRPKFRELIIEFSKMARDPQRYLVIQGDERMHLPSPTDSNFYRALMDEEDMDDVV
T1 sequence (P00533 25-1210): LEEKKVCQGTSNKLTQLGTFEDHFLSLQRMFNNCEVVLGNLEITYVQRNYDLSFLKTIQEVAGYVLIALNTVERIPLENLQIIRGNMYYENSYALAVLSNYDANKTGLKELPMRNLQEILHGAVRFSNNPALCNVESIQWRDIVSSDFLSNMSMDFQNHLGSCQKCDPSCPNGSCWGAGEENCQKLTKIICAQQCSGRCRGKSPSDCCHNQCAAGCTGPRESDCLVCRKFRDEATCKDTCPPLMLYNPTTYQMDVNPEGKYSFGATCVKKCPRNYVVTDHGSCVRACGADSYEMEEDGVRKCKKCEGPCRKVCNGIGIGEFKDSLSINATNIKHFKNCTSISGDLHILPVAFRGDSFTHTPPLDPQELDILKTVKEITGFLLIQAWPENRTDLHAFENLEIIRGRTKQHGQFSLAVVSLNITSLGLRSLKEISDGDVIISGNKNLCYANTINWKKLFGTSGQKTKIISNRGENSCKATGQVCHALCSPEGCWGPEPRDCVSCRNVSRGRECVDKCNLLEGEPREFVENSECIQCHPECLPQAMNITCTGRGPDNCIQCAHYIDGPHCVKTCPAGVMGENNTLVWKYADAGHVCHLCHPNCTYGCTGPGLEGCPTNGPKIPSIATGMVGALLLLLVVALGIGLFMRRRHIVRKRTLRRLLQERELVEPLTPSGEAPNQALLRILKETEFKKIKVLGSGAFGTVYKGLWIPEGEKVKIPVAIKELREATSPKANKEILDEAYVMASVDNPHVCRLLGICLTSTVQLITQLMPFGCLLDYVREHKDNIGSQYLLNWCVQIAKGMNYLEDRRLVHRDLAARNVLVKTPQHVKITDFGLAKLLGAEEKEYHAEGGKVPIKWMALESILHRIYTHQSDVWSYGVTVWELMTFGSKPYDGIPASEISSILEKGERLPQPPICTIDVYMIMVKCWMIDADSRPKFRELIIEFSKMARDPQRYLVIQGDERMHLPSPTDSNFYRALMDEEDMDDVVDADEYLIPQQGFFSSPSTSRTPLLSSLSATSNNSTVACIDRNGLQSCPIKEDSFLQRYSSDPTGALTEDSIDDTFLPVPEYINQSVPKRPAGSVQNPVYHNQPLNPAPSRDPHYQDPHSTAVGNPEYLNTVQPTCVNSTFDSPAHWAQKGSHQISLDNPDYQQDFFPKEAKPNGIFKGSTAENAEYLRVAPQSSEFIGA
T3 sequence (P00533 669-1011 T790M/L858R): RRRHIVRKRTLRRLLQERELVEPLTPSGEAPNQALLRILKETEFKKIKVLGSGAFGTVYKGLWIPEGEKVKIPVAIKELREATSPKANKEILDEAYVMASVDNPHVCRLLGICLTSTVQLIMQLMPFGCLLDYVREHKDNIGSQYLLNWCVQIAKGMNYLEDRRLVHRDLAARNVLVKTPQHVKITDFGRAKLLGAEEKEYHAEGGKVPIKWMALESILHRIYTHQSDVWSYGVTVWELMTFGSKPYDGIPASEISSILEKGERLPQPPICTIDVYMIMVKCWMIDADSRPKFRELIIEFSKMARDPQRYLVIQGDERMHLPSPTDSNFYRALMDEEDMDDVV

| Compound | Kd (EGFR) | Kd [1] | Kd [2] | GI50 (HeLa cells; Homo sapiens, 72 h) | GI50 (HeLa cells) | GI50 (HEK293 cells; Homo sapiens, 72 h) | GI50 (HEK293 cells) |
| --- | --- | --- | --- | --- | --- | --- | --- |
| C=CC(=O)Nc1cc(Nc2nccc(-c3cn(C)c4ccccc34)n2)c(OC)cc1N(C)CCN(C)CCCN1CCN(CCCNC(=O)c2ccc(Nc3ncc4c(n3)N(C3CCCC3)[C@H](CC)C(=O)N4C)c(OC)c2)CC1 [Compound I-122, 4-[(8-cyclopentyl-7-ethyl-5-methyl-6-oxo-7H-pteridin-2-yl)amino]-3-methoxy-N-[3-[4-[3-[2-[5-methoxy-N-methyl-4-[[4-(1-methylindol-3-yl)pyrimidin-2-yl]amino]-2-(prop-2-enoylamino)anilino]ethyl-methyl-amino]propyl]piperazin-1-yl]propyl]benzamide] | 50 to 500 nM | 500 to 2500 nM | < 50 nM | 1500 to 5000 nM | – | 1500 to 5000 nM | – |
| C=CC(=O)Nc1cc(Nc2nccc(-c3cn(C)c4ccccc34)n2)c(OC)cc1N(C)CCN(C)CCCN1CCN(CCCOc2ccc(CNc3cc(N4CCCC[C@H]4CCO)nc4c(CC)cnn34)cn2)CC1 [Compound I-149, N-[2-[2-[3-[4-[3-[[5-[[[3-ethyl-5-[(2S)-2-(2-hydroxyethyl)-1-piperidyl]pyrazolo[1,5-a]pyrimidin-7-yl]amino]methyl]-2-pyridyl]oxy]propyl]piperazin-1-yl]propyl-methyl-amino]ethyl-methyl-amino]-4-methoxy-5-[[4-(1-methylindol-3-yl)pyrimidin-2-yl]amino]phenyl]prop-2-enamide] | 500 to 2500 nM | 500 to 2500 nM | < 50 nM | < 500 nM | – | < 500 nM | – |
| C=CC(=O)N[C@@H]1CN(c2nc(Nc3cn(CCOCCOCCOCCOCCNC(=O)c4ccc(Nc5ncc6c(n5)N(C5CCCC5)[C@H](CC)C(=O)N6C)c(OC)c4)nc3OC)c3ncn(C)c3n2)C[C@H]1F [Compound I-125] | 50 to 500 nM | 50 to 500 nM | < 50 nM | > 5000 nM | – | 1500 to 5000 nM | – |
| C=CC(=O)Nc1cc(Nc2nccc(-c3cn(C)c4ccccc34)n2)c(OC)cc1N(C)CCN(C)CCOCCON(C)C(=O)N1N=C(c2cc(F)ccc2F)S[C@@]1(CCCN)c1ccccc1 [Compound I-127, (2S)-2-(3-aminopropyl)-5-(2,5-difluorophenyl)-N-[2-[2-[2-[5-methoxy-N-methyl-4-[[4-(1-methylindol-3-yl)pyrimidin-2-yl]amino]-2-(prop-2-enoylamino)anilino]ethyl-methyl-amino]ethoxy]ethoxy]-N-methyl-2-phenyl-1,3,4-thiadiazole-3-carboxamide] | 50 to 500 nM | 50 to 500 nM | < 50 nM | 1500 to 5000 nM | – | 500 to 1500 nM | – |
| C=CC(=O)N[C@@H]1CN(c2nc(Nc3cn(CCOCCOCCOCCOCCOCCOCCOc4ccc(CNc5cc(N6CCCC[C@@H]6CCO)nc6c(CC)cnn56)cn4)nc3OC)c3ncn(C)c3n2)C[C@H]1F [Compound I-140, N—[(3R,4R)-1-[6-[[1-[2-[2-[2-[2-[2-[2-[2-[[5-111[[[3-ethyl-5-[(2R)-2-(2-hydroxyethyl)-1-piperidyl]pyrazolo[1,5-a]pyrimidin-7-yl]amino]methyl]-2-pyridyl]oxy]ethoxy]ethoxy]ethoxy]ethoxy]ethoxy]ethoxy]ethyl]-3-methoxy-pyrazol-4-yl]amino]-9-methyl-purin-2-yl]-4-fluoro-pyrrolidin-3-yl]prop-2-enamide] | 50 to 500 nM | 50 to 500 nM | < 50 nM | – | < 500 nM | – | < 500 nM |
| C=CC(=O)N[C@@H]1CN(c2nc(Nc3cn(CCOCCON(C)C(=O)N4N=C(c5cc(F)ccc5F)S[C@@]4(CCCN)c4ccccc4)nc3OC)c3ncn(C)c3n2)C[C@H]1F [Compound I-134, (2S)-2-(3-aminopropyl)-5-(2,5-difluorophenyl)-N—[2-[2-[4-[[2-[(3R,4R)-3-fluoro-4-(prop-2-enoylamino)pyrrolidin-1-yl]-9-methyl-purin-6-yl]amino]-3-methoxy-pyrazol-1-yl]ethoxy]ethoxy]-N-methyl-2-phenyl-1,3,4-thiadiazole-3-carboxamide] | < 50 nM | < 50 nM | < 50 nM | 1500 to 5000 nM | – | > 5000 nM | – |

Further lines, with some results ahead:

| Kd (EGFR) | Kd [1] | Kd [2] | GI50 (HeLa cells; Homo sapiens, 72 h) | GI50 (HeLa cells) | Compound | GI50 (HEK293 cells; Homo sapiens, 72 h) | GI50 (HEK293 cells) |
| --- | --- | --- | --- | --- | --- | --- | --- |
| > 2500 nM | > 2500 nM | < 50 nM | 500 to 1500 nM | – | CC[C@@H]1C(=O)N(C)c2cnc(Nc3ccc(C(=O)NCCOCCOCCOCCOCCN(C)C/C=C/C(=O)Nc4cc(Nc5nccc(-c6cn(C)c7ccccc67)n5)c(OC)cc4N(C)CCN(C)C)cc3OC)nc2N1C1CCCC1 [Compound I-123, 4-[[(7R)-8-cyclopentyl-7-ethyl-5-methyl-6-oxo-7H-pteridin-2-yl]amino]-N-[2-[2-1[2-[2-[2-[[(E)-4-[2-1[2-(dimethylamino)ethyl-methyl-amino]-4-methoxy-5-[1[4-(1-methylindol-3-yl)pyrimidin-2-yl]amino]anilino]-4-oxo-but-2-enyl]-methyl-amino]ethoxy]ethoxy]ethoxy]ethoxy]ethyl]-3-methoxy-benzamide] | 500 to 1500 nM | – |
| 500 to 2500 nM | 500 to 2500 nM | < 50 nM | < 500 nM | – | CC[C@@H]1C(=O)N(C)c2cnc(Nc3ccc(C(=O)NCCCN4CCN(CCCN(C)C/C=C/C(=O)N[C@@H]5CN(c6nc(Nc7cn(C)nc7OC)c7ncn(C)c7n6)C[C@H]5F)CC4)cc3OC)nc2N1C1CCCC1 [Compound I-152, 4-[[(7R)-8-cyclopentyl-7-ethyl-5-methyl-6-oxo-7H-pteridin-2-yl]amino]-N-[3-[4-[3-[[(E)-4-[[(3R,4R)-4-fluoro-1-1[6-1[(3-methoxy-1-methyl-pyrazol-4-yl)amino]-9-methyl-purin-2-yl]pyrrolidin-3-yl]amino]-4-oxo-but-2-enyl]-methyl-amino]propyl]piperazin-1-yl]propyl]-3-methoxy-benzamide] | > 5000 nM | – |
| 50 to 500 nM | 50 to 500 nM | < 50 nM | < 500 nM | – | C=CC(=O)N[C@@H]1CN(c2nc(Nc3cn(CCOc4ccc(CNc5cc(N6CCCC[C@H]6CCO)nc6c(CC)cnn56)cn4)nc3OC)c3ncn(C)c3n2)C[C@H]1F [Compound I-139, N-[(3R,4R)-1-[6-[[1-[2-[[5-1[[[3-ethyl-5-[(2S)-2-(2-hydroxyethyl)-1-piperidyl]pyrazolo[1,5-a]pyrimidin-7-yl]amino]methyl]-2-pyridyl]oxy]ethyl]-3-methoxy-pyrazol-4-yl]amino]-9-methyl-purin-2-yl]-4-fluoro-pyrrolidin-3-yl]prop-2-enamide] | < 500 nM | – |
| 50 to 500 nM | 50 to 500 nM | < 50 nM | 500 to 1500 nM | – | C=CC(=O)N[C@@H]1CN(c2nc(Nc3cn(CCOCCOCCNC(=O)c4ccc(Nc5ncc6c(n5)N(C5CCCC5)[C@H](CC)C(=O)N6C)c(OC)c4)nc3OC)c3ncn(C)c3n2)C[C@H]1F [Compound I-128, 4-[[(7R)-8-cyclopentyl-7-ethyl-5-methyl-6-oxo-7H-pteridin-2-yl]amino]-N-[2[22-[2-[4-[[2-[(3R,4R)-3-fluoro-4-(prop-2-enoylamino)pyrrolidin-1-yl]-9-methyl-purin-6-yl]amino]-3-methoxy-pyrazol-1-yl]ethoxy]ethoxy]ethyl]-3-methoxy-benzamide] | 500 to 1500 nM | – |
| < 50 nM | 50 to 500 nM | < 50 nM | 500 to 1500 nM | – | C=CC(=O)Nc1cc(Nc2nccc(-c3cn(C)c4ccccc34)n2)c(OC)cc1N(C)CCN(C)CCOCCOCCOCCOCCON(C)C(=O)N1N=C(c2cc(F)ccc2F)SC1(CCCN)c1ccccc1 (stereo not drawn) [Compound I-67] | 500 to 1500 nM | – |
| 500 to 2500 nM | 500 to 2500 nM | < 50 nM | 500 to 1500 nM | – | C=CC(=O)Nc1cc(Nc2nccc(-c3cn(C)c4ccccc34)n2)c(OC)cc1N(C)CCN(C)CCCON(C)C(=O)N1N=C(c2cc(F)ccc2F)S[C@@]1(CCCN)c1ccccc1 [Compound I-130, (2S)-2-(3-aminopropyl)-5-(2,5-difluorophenyl)-N-[3-[2-[5-methoxy-N-methyl-4-[[4-(1-methylindol-3-yl)pyrimidin-2-yl]amino]-2-(prop-2-enoylamino)anilino]ethyl-methyl-amino]propoxy]-N-methyl-2-phenyl-1,3,4-thiadiazole-3-carboxamide] | 500 to 1500 nM | – |

Source: patent US20250032623A1, “HETEROBIFUNCTIONAL COMPOUNDS AND THEIR USE IN TREATING DISEASE” (HALDA THERAPEUTICS OPCO, INC., priority 2021, published 2025)
